The results in this text go back to US5348949A, “Method of preparing N-oxo-tetrahydro-β-carbolines” (Duphar International Research B.V., priority 1989, dated 1994).

Values after ≈ are worked out from the molar mass of the structure shown. “Also recorded” adds a separate entry of the source. Where two headings read alike, the source gives them in different places.

A short description of data set [1]: cytotoxicity in Vero cell cultures. To be noted: monkey, vero cells.
Data set [2] has as its system influenza virus B (Singapore). As to the kind of experiment: microbe, parasite or virus in culture. The data set is classed as cell-based. To be noted: unidentified influenza virus, read-out: MIC influenza virus B (Singapore).
The test system of the next data set is Sindbis virus. As to the kind of experiment: inhibition of virus induced cytopathogenicity, Vero cells, Sindbis virus. The data set is classed as cell-based. As to the method:
(§1) Antiviral activity of some eudistomin derivatives was determined in a large number of in-vitro assays as described in reference 9. These tests are all based on the inhibition of virus induced cytopathogenicity. Depending upon the virus studied, different cell cultures were used. […] New compound 67 has the additional advantage of a 10-fold higher potency as compared with known compound 63.
Background: Damage to the host cells serves as the signal in cytopathic effect assays.

A further data set concerns Semliki forest virus. Kind of data set: inhibition of virus induced cytopathogenicity, Vero cells, Semliki forest virus. It is filed as cell-based. As to the method: as §1
Data set [3] has as its system Herpes simplex virus-1 (KOS). It is filed as cell-based. The conditions noted are these: Human alphaherpesvirus 1; PRK cells. How it is done:
as §1

The subject of data set [4] is Herpes simplex virus-2 (G). It is filed as cell-based. To be noted: Human alphaherpesvirus 2; PRK cells. How it is done:
as §1

Data set [5] has as its system Herpes simplex virus-2 (Lyons). It is filed as cell-based. The conditions noted are these: Human alphaherpesvirus 2; PRK cells. As to the method: as §1
Data set [6] concerns Herpes simplex virus-2 (196). It is filed as cell-based. The conditions noted are these: Human alphaherpesvirus 2; PRK cells. How it is done: as §1
The subject of data set [7] is Herpes simplex virus-1 (McInyre). The data set is classed as cell-based. To be noted: Human alphaherpesvirus 1; PRK cells. As to the method:
as §1

The test system of data set [8] is Herpes simplex virus-1 (F). It is filed as cell-based. To be noted: Human alphaherpesvirus 1; PRK cells. How it is done:
as §1

The subject of another data set is Reovirus-1. Kind of data set: inhibition of virus induced cytopathogenicity, Vero cells, Reovirus-1. It is filed as cell-based. How it is done:
as §1

The nature of data set [9]: cytotoxicity in Hela cell cultures. The conditions noted are these: human, hela cells.
In a further data set the test system is Coxsackie virus B4. As to the kind of experiment: inhibition of virus induced cytopathogenicity, Hela cells, Coxsackie virus B4. To be noted: Enterovirus B. The data set is classed as cell-based. How it is done: as §1
The subject of the next data set is P 388 leukemia cells. As to the kind of experiment: inhibition of P 388 leukemia cells colony formation (in vitro antitumour). To be noted: for IC50: Mus musculus, P388, read-out: ID50. The data set is classed as cell-based. As to the method:
The antitumour activity of some eudistomin derivatives and the references antitumour drug was assessed in an invitro test with high predictive power for in-vivo activity. In this assay the inhibition of P 388 leukemia cells colony formation was determined at several concentrations of the test compounds as described in reference 8. The activity is expressed as an ID50 value, which indicates the dose causing 50% inhibition with respect to untreated control cells.

Data set [10] deals with influenza virus A (Ishikawa). Kind of data set: microbe, parasite or virus in culture. It is filed as cell-based. The conditions noted are these: unidentified influenza virus, read-out: MIC influenza virus A (Ishikawa).
The next data set concerns Polio virus. Kind of data set: microbe, parasite or virus in culture. The conditions noted are these: read-out: MIC Polio virus. It is filed as cell-based.
Data set [11] is described as follows: cytotoxicity in primary rabbit kidney (PRK) cell cultures. To be noted: primary rabbit kidney cells.
A further data set concerns Coxsasckie virus B4. As to the kind of experiment: inhibition of virus induced cytopathogenicity, Vero cells, Coxsackie virus B4. It is filed as cell-based. To be noted: Enterovirus B. How it is done: as §1
Data set [12] has as its system Respiratory syncytial virus (Lung). As to the kind of experiment: inhibition of virus induced cytopathogenicity, Hela cells, respiratory syncytial virus (Lung). To be noted: human respiratory syncytial virus. The data set is classed as cell-based. How it is done:
as §1

A short description of data set [13]: cytotoxicity in MDCK cell cultures. The conditions noted are these: dog.
A further data set concerns parainfluenza-3 virus. As to the kind of experiment: inhibition of virus induced cytopathogenicity, Vero cells, parainfluenza-3 virus. It is filed as cell-based. As to the method: as §1
In a further data set the test system is Vaccinia virus. Kind of data set: microbe, parasite or virus in culture. It is filed as cell-based. The conditions noted are these: Orthopoxvirus vaccinia, read-out: MIC Vaccinia virus.
Data set [14] can be described thus: in vitro. To be noted: human, hela cells.
Data set [15] in a line: in vitro. To be noted: rabbit, primary rabbit kidney cells.
The test system of data set [16] is Vesicular stomatitis virus. As to the kind of experiment: microbe, parasite or virus in culture. The data set is classed as cell-based. To be noted: read-out: MIC Vesicular stomatitis virus.
Data set [17] can be described thus: in vitro. The conditions noted are these: dog, mdck.
Data set [18] can be described thus: in vitro. The conditions noted are these: monkey, vero cells.
Data set [19] concerns Vesicular stomatitis virus. Kind of data set: microbe, parasite or virus in culture. To be noted: read-out: MIC Vesicular stomatitis virus. It is filed as cell-based. This is another data set of the same source.
A further data set relates to 22 antiviral test models. As to the kind of experiment: 22 antiviral assays taken together (summary statements). The data set is classed as cell-based. How it is done: as §1

For `c1ccc2c3c([nH]c2c1)C1CCSCON1CC3` (racemic) [Compound 50, (±)-Deamino, debromo Eudistomin L], the MCC in [1] is at least 40 µg/mL; in data set [9], at least 30 µg/mL; in data set [11], at least 120 µg/mL; in [13] it was 80 µg/mL. For the same compound, the MIC in data set [2] was above 40 µg/mL; in the data set on Sindbis virus it was above 10 µg/mL; against Semliki forest virus, above 25 µg/mL; in data set [3], above 70 µg/mL; in data set [4], above 120 µg/mL; in data set [5], above 70 µg/mL. Besides, the MIC was above 70 µg/mL in data set [6]; above 70 µg/mL in [7]; above 70 µg/mL in data set [8]; above 10 µg/mL with Reovirus-1; above 10 µg/mL with Coxsackie virus B4; above 40 µg/mL in data set [10]. Further, the MIC with Polio virus is above 10 µg/mL; in the data set with Coxsasckie virus B4 it was above 25 µg/mL; in [12], above 8 µg/mL; with parainfluenza-3 virus it was above 10 µg/mL; with Vaccinia virus, above 70 µg/mL. Moreover, in the data set with P 388 leukemia cells (dose causing 50% inhibition of colony formation vs untreated control cells), the ID50 entry is given as “no activity at 1.0”.

As for `N[C@@H]1CSCON2CCc3c([nH]c4ccccc34)[C@H]12` [Compound 63, (1S.13bS)-debromo Eudistomin L], the MCC in “in vitro [14]” is at least 4 µg/mL; in the data set “in vitro [15]” it was at least 25 µg/mL; in the data set “in vitro [17]” it was 8 µg/mL; in the data set “in vitro [18]”, at least 4 µg/mL. The MIC was 0.8 µg/mL (≈ 2.91 µM) in data set [2]; 0.35 µg/mL (≈ 1.27 µM) against Sindbis virus; 0.45 µg/mL (≈ 1.63 µM) with Semliki forest virus; 1.35 µg/mL (≈ 4.9 µM) in data set [3]; 0.2 µg/mL (≈ 0.726 µM) in data set [4]; 0.38 µg/mL (≈ 1.38 µM) in [5]. Also, the MIC in [6] turned out to be 0.2 µg/mL (≈ 0.726 µM); in [7] it was 0.2 µg/mL (≈ 0.726 µM); in data set [8], 0.25 µg/mL (≈ 0.908 µM); against Reovirus-1, 0.4 µg/mL (≈ 1.45 µM); against Coxsackie virus B4 it was 0.55 µg/mL (≈ 2 µM); in data set [16] it was 0.2 µg/mL (≈ 0.726 µM). The MIC in [10] is 0.8 µg/mL (≈ 2.91 µM); with Polio virus, 0.7 µg/mL (≈ 2.54 µM); in [19], 0.2 µg/mL (≈ 0.726 µM); with Coxsasckie virus B4, 0.55 µg/mL (≈ 2 µM); in data set [12] it was 0.8 µg/mL (≈ 2.91 µM); against parainfluenza-3 virus, above 0.6 µg/mL. In addition, the MIC in the data set on Vaccinia virus turned out to be 0.25 µg/mL (≈ 0.908 µM). Further, the IC50 with P 388 leukemia cells worked out at 42 µg/mL (≈ 153 µM). For the same compound, the “spectrum of antiviral activity” value in the data set on 22 antiviral test models is listed as “exceptionally wide range of activities; also recorded: very broad spectrum of antiviral activity”.

As for `COc1ccc2[nH]c3c(c2c1)CCN1OCSCC(N)C31` [Compound 67, (1S,13bS)-5-methoxy Eudistomin L], the MCC in “in vitro [14]” is 2 µg/mL; in “in vitro [15]”, at least 2.5 µg/mL; in the data set “in vitro [17]”, 0.8 µg/mL; in the data set “in vitro [18]”, at least 1 µg/mL. For the same compound, the MIC in data set [2] is above 0.32 µg/mL; against Sindbis virus, 0.045 µg/mL (≈ 0.147 µM); in the data set with Semliki forest virus, 0.11 µg/mL (≈ 0.36 µM); in data set [3], 0.045 µg/mL (≈ 0.147 µM); in data set [4] it was 0.012 µg/mL (≈ 0.0393 µM); in data set [5], 0.023 µg/mL (≈ 0.0753 µM). In addition, the MIC in data set [6] was 0.014 µg/mL (≈ 0.0458 µM); in data set [7], 0.013 µg/mL (≈ 0.0426 µM); in [8], 0.039 µg/mL (≈ 0.128 µM); against Reovirus-1, 0.045 µg/mL (≈ 0.147 µM); in the data set on Coxsackie virus B4, 0.045 µg/mL (≈ 0.147 µM); in data set [10] it was above 0.32 µg/mL. The MIC with Polio virus worked out at 0.045 µg/mL (≈ 0.147 µM); against Coxsasckie virus B4, 0.07 µg/mL (≈ 0.229 µM); in [12] it was 0.15 µg/mL (≈ 0.491 µM); against parainfluenza-3 virus, 0.55 µg/mL (≈ 1.8 µM); in the data set with Vaccinia virus, 0.012 µg/mL (≈ 0.0393 µM). In the data set with P 388 leukemia cells, the IC50 came to 3.8 µg/mL (≈ 12.4 µM). Further, the “spectrum of antiviral activity” value in the data set on 22 antiviral test models is listed as “exceptionally wide range of activities; also recorded: very broad spectrum of antiviral activity”.

With `NC(=O)c1ncn([C@@H]2O[C@H](CO)[C@@H](O)[C@H]2O)n1` [Ribavirin, ribavirin, reference compound], the MCC in the data set “in vitro [14]” is at least 400 µg/mL; in the data set “in vitro [15]”, at least 400 µg/mL; in “in vitro [17]” it was above 200 µg/mL; in “in vitro [18]”, above 400 µg/mL. For the same compound, the MIC in data set [2] is 15 µg/mL (≈ 61.4 µM); in the data set with Sindbis virus, above 235 µg/mL; in the data set on Semliki forest virus, above 300 µg/mL; in data set [3] it was above 200 µg/mL; in data set [4] it was above 200 µg/mL; in data set [5], above 200 µg/mL. Further, the MIC in data set [6] is above 200 µg/mL; in data set [7], above 200 µg/mL; in data set [8], above 200 µg/mL; against Reovirus-1 it was 125 µg/mL (≈ 512 µM); against Coxsackie virus B4, 70 µg/mL (≈ 287 µM); in data set [10] it was 15 µg/mL (≈ 61.4 µM). In addition, the MIC in the data set with Polio virus was 110 µg/mL (≈ 450 µM); against Coxsasckie virus B4, above 300 µg/mL; in data set [12] it was 3 µg/mL (≈ 12.3 µM); in the data set on parainfluenza-3 virus, 135 µg/mL (≈ 553 µM); with Vaccinia virus it was 30 µg/mL (≈ 123 µM).

As to `COc1cccc2c1C(=O)c1c(O)c3c(c(O)c1C2=O)C[C@@](O)(C(=O)CO)C[C@@H]3O[C@H]1C[C@H](N)[C@H](O)[C@H](C)O1` [adriamycin, reference compound], in the data set on P 388 leukemia cells, the IC50 was determined as 20 µg/mL (≈ 36.8 µM).
